Where no end group is shown, it is not given here.
Key:
mAb 763.74 = assay: Inhibition by peptides of binding of biotinylated mAb 763.74 to HMW-MAA-bearing Colo38 melanoma cells; details: for Inhibition of binding of mAb 763.74 to HMW-MAA-bearing melanoma cells: Colo38 cells, escalating peptide concentrations, FIG. 3; for IC50 for inhibition of mAb 763.74 binding: biotinylated mAb 763.74 incubated with peptide at 4° C. overnight, then Colo38 cells 1 h at 4° C., read-out: Dissociation constant (Kd), molar concentration of the peptide required to cause a 50% inhibition of binding of biotinylated mAb 763.74 to Colo38 cells
Procedure: FIG. 3 is a graphical depiction of dose-dependent inhibition by anti-id mAb MK2-23H3-derived peptide PMK2-23H3 of binding of mAb 763.74 to HMW-MAA-bearing Colo38 melanoma cells. Peptides PHMW.D2.7 (HMW-MAA-derived), PMK2-23H3 (anti-id mAb MK2-23H3-derived), and an irrelevant control peptide Pb2m (β2-microglobulin-derived) at increasing concentrations were incubated with biotinylated mAb 763.74 (0.5 μg/ml) and assayed as described in Example 2. Results of one of three representative experiments are shown.
PMK2-23H3, PMK2-23L1, and PHMW-MAA.D2.7 were synthesized by N.C. Wang, Hospital for Sick Children, Toronto, ON, Canada. A synthetic peptide derived from β2-microglobulin (Pb2m, KNGERIEKVEHS SEQ ID NO:4), used as a negative control, was purchased from University of Georgia Molecular Genetics Instrumentation Facility (Athens, Ga.). mAb 763.74 was purified from ascitic fluid by sequential ammonium sulphate and caprylic acid precipitation (Temponi, et al. (1989) Hybridoma. 8, 85-95). The purity and activity of mAb preparations were assessed by SDS-PAGE and by testing with the corresponding antigen in a binding assay, respectively. Biotinylation was performed using NHS-LC-biotin (Pierce, Rockford, Ill.) according to the manufacturer's instructions.)
Escalating concentrations of peptides were incubated with biotinylated mAb 763.74 ([…]) at 4° C. overnight in U-bottom 96-well plates. The mixture was then incubated with HMW-MAA-bearing melanoma cells Colo38 (10^5/well) for 1 h at 4° C. After three washes with 1% bovine serum albumin in phosphate buffered saline, an optimal amount of horseradish peroxidase-conjugated streptavidin was added. Reactions were then developed and visualized with the TMB substrate system (KPL, Gaithersburg, Md.). Reactions were reported as optical density (O.D.) measured with an ELISA reader. Percent inhibition was calculated by the formula: 100%×(O.D.irrelevant peptide−O.D.test peptide)/O.D.irrelevant peptide. Dissociation constant (Kd) was calculated as the molar concentration of the peptide required to cause a 50% inhibition of binding of biotinylated mAb 763.74 to HMW-MAA-bearing melanoma cells Colo38 (Temponi, et al. (1992) Cancer Res. 52, 2497-2503).

[1] = tested on: HMW-MAA-transfected M14 melanoma cells; assay: Immunogenicity in BALB/c mice: reactivity of sera with HMW-MAA-transfected and mock-transfected M14 melanoma cells in ELISA and FACS; type: in vivo; details: sera day 28; ELISA and FACS analysis
Procedure: FIGS. 4A and 4B are graphical depictions of the immunogenicity of peptide PMK2-23H3 in BALB/c mice. Sera harvested before immunization (circle) and on days 7 (square) and 28 (triangle) after immunization from BALB/c mice immunized with anti-id mAb-derived peptide PMK2-23H3 were tested for their reactivity in ELISA with the immunizing peptide (closed symbols, left panel of FIG. 4A) and with HMW-MAA-derived peptide PHMW.D2.7 (open symbols, right panel of FIG. 4A). Sera harvested before immunization (circles) and on day 28 (triangles) were tested in ELISA (left panel in FIG. 4B) with HMW-MAA-transfected M14#5 cells (closed symbols) and with their mock-transfected counterparts (open symbols, left panel in FIG. 4B). […]
Immunizations were given subcutaneously to 8-week-old female BALB/c mice (obtained from Taconic Farms, Germantown, N.Y.) (5 per group) on day 0, 21, and 42. […] They were tested for reactivity with the immunizing peptide coated on 96-well plates (Temponi, et al. (1989) Hybridoma. 8, 85-95) and with HMW-MAA-bearing melanoma cells in ELISA and fluorescence-activated cell sorting (FACS) analysis using conventional techniques as previously described (Chen, et al. (1991) J. Immunol. 147, 1082-1090).

[2] = tested on: peptides PMK2-23H3, PHMW.D2.7 and anti-id mAb MK2-23; assay: Immunogenicity in BALB/c mice: reactivity of sera in peptide binding ELISA; type: in vivo; details: peptide conjugated to KLH with Freund adjuvant; for Reactivity of sera from immunized mice with HMW-MAA-derived peptide PHMW.D2.7 / Reactivity of sera from immunized mice with peptide PMK2-23H3: s.c. day 0, 21, 42, sera day 7 and 28, ELISA
Procedure: FIGS. 4A and 4B are graphical depictions of the immunogenicity of peptide PMK2-23H3 in BALB/c mice. Sera harvested before immunization (circle) and on days 7 (square) and 28 (triangle) after immunization from BALB/c mice immunized with anti-id mAb-derived peptide PMK2-23H3 were tested for their reactivity in ELISA with the immunizing peptide (closed symbols, left panel of FIG. 4A) and with HMW-MAA-derived peptide PHMW.D2.7 (open symbols, right panel of FIG. 4A). Sera harvested before immunization (circles) and on day 28 (triangles) were tested in ELISA (left panel in FIG. 4B) with HMW-MAA-transfected M14#5 cells (closed symbols) and with their mock-transfected counterparts (open symbols, left panel in FIG. 4B). Sera harvested on day 28 were tested by FACS analysis (right panel in FIG. 4B, open profiles) with HMW-MAA-transfected M14#5 cells (M14#5/HMW) and with their mock-transfected counterparts (M14#5/neo). Preimmune sera (filled profile) were used as controls.
Immunizations were given subcutaneously to 8-week-old female BALB/c mice (obtained from Taconic Farms, Germantown, N.Y.) (5 per group) on day 0, 21, and 42. Sera were harvested before immunization and on day 7 and 28. They were tested for reactivity with the immunizing peptide coated on 96-well plates (Temponi, et al. (1989) Hybridoma. 8, 85-95) and with HMW-MAA-bearing melanoma cells in ELISA and fluorescence-activated cell sorting (FACS) analysis using conventional techniques as previously described (Chen, et al. (1991) J. Immunol. 147, 1082-1090).

[3] = Solubility of peptide, as noted for the peptide binding assays; type: physicochemical
Procedure: Peptide PMK2-23H3, which was based on the H3 loop of anti-id mAb MK2-23 encompassing the HMW-MAA-homologous amino acid sequence (FIG. 1) was analyzed for reactivity with the HMW-MAA-specific idiotypic mAb 763.74. […] The peptide SVEYYGSSLMQ (designated as PMK2-23L1), which was derived from the L1 loop of anti-id mAb MK2-23 encompassing the described HMW-MAA-homologous a.a. sequence, was also synthesized.

| Sequence | Inhibition of binding of mAb 763.74 to HMW-MAA-bearing melanoma cells (mAb 763.74) | IC50 for inhibition of mAb 763.74 binding (mAb 763.74) [µM] | Reactivity of sera from immunized mice with HMW-MAA-transfected M14 melanoma cells (M14.HMW-MAA) [1] | Reactivity of sera from immunized mice with mock-transfected M14 cells (M14.neo) [1] | Reactivity of sera from immunized mice with HMW-MAA-derived peptide PHMW.D2.7 [2] | Reactivity of sera from immunized mice with peptide PMK2-23H3 [2] | Reactivity of sera from immunized mice with anti-id mAb MK2-23 ([2]; s.c., peptide binding assay) | Solubility [3] |
| --- | --- | --- | --- | --- | --- | --- | --- | --- |
| ARSNYVGYHVRWYFD [PMK2-23H3, identical to a portion of the H3 loop of anti-id mAb MK2-23] | inhibits the binding | 0.871 | reacted | did not react | reacted | reacted | reacted | – |
| IRSGDEVHYHVTAGPRW [PHMW-MAA.D2.7, IRSGDEVHYHV TAGPRW, identical to a region of HMW-MAA with partial homology to the H3 loop of MK2-23] | – | 0.9 | – | – | – | – | – | – |
| KNGERIEKVEHS (human; Beta 2-microglobulin peptide) [Pb2m, reference compound] | no detectable effect | – | – | – | no detectable reactivity | no detectable reactivity | – | – |
| SVEYYGSSLMQ [PMK2-23L1, SVEYYGSSLMQ] | – | – | – | – | – | – | – | low solubility |

— patent publication US7887822B2, “Peptides for stimulating an immune response against melanoma” (Health Research, Inc., priority 2005, dated 2011)
